The values that follow come from US9777021B2, “Lubricant additives” (Qatar Foundation, priority 2016, dated 2017).

The structures appear in SMILES notation.

A short description of series [1]: Temperature-ramped pin-on-disk (ball-on-disk) tribometry, friction (COF). The note with it: for friction reduction: temperature ramp 180 to 350° C. over 30 min. The protocol:
(§1) Silver complex 1 was combined with PAO4 and 15W40 military-grade engine oil (FF oil). The complex was dissolved in the minimal amount of hexane (1 mL per 1 g silver complex) and then added to the oil to achieve complex concentrations of 1.0, 2.5 and 5.0 wt %. Before testing, the oil-silver complex mixtures were stirred with a magnetic stir bar for 30 minutes to ensure a homogeneous dispersion.
Table 1 outlines the experimental conditions used in this study. A ball bearing made of M50 bearing steel with 62 HRC hardness and a diameter of 4 mm is used to apply a vertical load to a 52100 steel disk with 50 HRC hardness and a diameter to 3″ as the disk rotates. The surface of the disk is coated with a 2 mL solution of 1 in the desired base oil. The sliding test conditions for all the experiments were: Normal load=25 N, sliding velocity=200 rpm. In the temperature ramp experiments, the temperature is increased from 180-350° C. over 30 min in order to detect any change in frictional characteristics as the oil degrades, and partially evaporates, and once the metallic Ag is deposited.
Silver complex 1 was added to oil at 0.0, 1.0, 2.5, and 5 wt % loadings. A minimal amount of hexanes was added to aid in solubilizing the complex (1 mL hexanes/g of complex) before mixing with oil. The oils used are PAO4, a base oil with no additives, and a military-grade 15W40 oil, which is fully formulated (FF) but contains no silver-containing additives (confirmed by elemental analysis).

Series [2] in a line: Wear analysis by white light interferometry of wear scars. The note with it: disks of temperature ramp tests. The protocol:
After friction tests were completed, the disks were sonicated in a hexane bath to remove oil residue. The volume of the wear scar was measured using a Zygo NewView 7100 white light interferometer. The wear volume and material buildup around the wear scar were used to calculate the wear rate, which is defined as the volume removed per unit load per sliding distance. Each additive concentration in oil was tested twice for friction and wear performance. Energy-dispersive X-ray spectroscopy (EDS) on Hitachi S4800-II and Hitachi SU8030 Scanning Electron Microscopes (SEMs) was used to examine the morphology of the disk surface and deposited silver content.
The disks used in the temperature ramp tests (FIG. 8) were next analyzed by white light interferometry to determine the volume of the wear scars and the material buildup outside of the scar. The volume of material removed was normalized for load and the distance traveled during the test. […] The trend in wear rate is similar to the trend in COF (FIG. 7), with a 2.5 wt % loading producing the lowest amounts of wear. […] It is hypothesized that the increase in efficiency of additive 1 is attributable to the increased number of silver atoms/molecule and improved solubility in oil, which enables better dispersion of the additive in base oil.

The nature of series [3]: Solubility in base oil. It counts as physicochemical. The protocol:
as §1
Solubility in base oil is an important property for tribologically promising high temperature additives, and is something that challenged previous generations of silver-organic additives.
Silver complex 1 was added to oil at 0.0, 1.0, 2.5, and 5 wt % loadings. A minimal amount of hexanes was added to aid in solubilizing the complex (1 mL hexanes/g of complex) before mixing with oil.

On to `CCCCCCc1c(C)n[n-]c1C.[Ag+]` [Compound 1, Ag(3,5-dimethyl-4-n-hexyl-pyrazole)], for which the friction reduction is on record as 30% in series [1] (2.5 wt % loading in 15W40) and 20% in series [1] (2.5 wt % loading in PAO4). Besides, the “COF behaviour as the oil begins to degrade above ~275° C.” value in series [1] (2.5 wt % loading in either base oil (PAO4, 15W40), temperature ramp 180 to 350° C.) is on record as “the COF does not increase”. Besides, the wear reduction in series [2] (2.5 wt % loading in 15W40) came out at 70%; in series [2] (2.5 wt % loading in PAO4) it was 60%. Besides, the “solubility in PAO4” value in series [3] (5 wt % loading, gentle heating at 40° C.) is given as “homogeneous solution”. The “solubility in oil (PAO4 or 15W40)” value in series [3] (cloudy suspension at room temperature, heating to 40° C. and magnetic stirring, 1 mL hexanes/g of complex) was “dissolves fully”.
